Reference: ChEMBL document CHEMBL4177639, “Acacetin inhibits neuronal cell death induced by 6-hydroxydopamine in cellular Parkinson's disease model” (Bioorg Med Chem Lett, 2017)
Calls of active or inactive are those of the source. The rule behind the calls is not given here.

What was measured:
SH-SY5Y [1] = assay: Neuroprotective activity against 6-OHDA induced toxicity in human SH-SY5Y cells assessed as reduction in mitochondrial membrane potential loss at 1 to 10 uM pretreated for 1 hr followed by 6-OHDA addition after 1 to 6 hrs by rhodamine123 dye based fluorescence microscopic analysis; assay type: functional, cell-based
[2] = target: Mitogen-activated protein kinase; ERK1/ERK2 (Homo sapiens) (UniProt P27361+P28482); assay: Inhibition of 6-OHDA induced ERK1/2 phosphorylation in human SH-SY5Y cells at 2.5 to 10 uM pretreated for 1 hr followed by 6-OHDA addition after 1 hr by Western blot analysis; assay type: cell-based
Chain of Mitogen-activated protein kinase; ERK1/ERK2 (Homo sapiens) (P27361 whole entry, looked up): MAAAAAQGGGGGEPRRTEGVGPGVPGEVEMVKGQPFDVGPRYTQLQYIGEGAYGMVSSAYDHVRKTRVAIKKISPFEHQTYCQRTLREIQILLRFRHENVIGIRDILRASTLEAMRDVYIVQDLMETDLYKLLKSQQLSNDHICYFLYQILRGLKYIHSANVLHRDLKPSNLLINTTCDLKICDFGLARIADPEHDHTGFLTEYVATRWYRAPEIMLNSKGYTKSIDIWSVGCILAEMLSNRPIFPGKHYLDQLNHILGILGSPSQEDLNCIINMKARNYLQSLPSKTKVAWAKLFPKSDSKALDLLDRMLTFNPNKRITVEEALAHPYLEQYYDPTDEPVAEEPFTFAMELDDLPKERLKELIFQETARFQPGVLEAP
Chain of Mitogen-activated protein kinase; ERK1/ERK2 (Homo sapiens) (P28482 whole entry, looked up): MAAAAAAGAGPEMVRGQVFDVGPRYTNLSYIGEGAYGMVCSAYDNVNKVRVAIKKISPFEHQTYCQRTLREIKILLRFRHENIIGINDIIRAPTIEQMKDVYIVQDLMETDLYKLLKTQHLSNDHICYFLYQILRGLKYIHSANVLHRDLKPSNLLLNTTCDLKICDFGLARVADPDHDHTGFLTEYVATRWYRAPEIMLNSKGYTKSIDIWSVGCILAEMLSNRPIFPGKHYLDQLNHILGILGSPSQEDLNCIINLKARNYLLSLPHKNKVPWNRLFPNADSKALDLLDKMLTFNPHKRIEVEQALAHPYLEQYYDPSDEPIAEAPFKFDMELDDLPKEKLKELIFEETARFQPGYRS

SH-SY5Y [3] = assay: Neuroprotective activity against 6-OHDA induced apoptosis in human SH-SY5Y cells assessed as reduction in cytochrome-c level pretreated for 1 hr followed by 6-OHDA addition after 6 to 24 hrs by Western blot analysis; assay type: functional, cell-based
SH-SY5Y [4] = assay: Neuroprotective activity against 6-OHDA induced apoptosis in human SH-SY5Y cells assessed as reduction in cleaved PARP level at 2.5 to 10 uM pretreated for 1 hr followed by 6-OHDA addition after 6 to 24 hrs by Western blot analysis; assay type: functional, cell-based
SH-SY5Y [5] = assay: Neuroprotective activity against 6-OHDA induced toxicity in human SH-SY5Y cells assessed as reduction in nuclear fragmentation at 2.5 to 10 uM pretreated for 1 hr followed by 6-OHDA addition after 24 hrs by Hoechst 33258/propidium iodide staining based fluorescence microscopic analysis; assay type: functional, cell-based
[6] = target: Glycogen synthase kinase-3 beta (Homo sapiens) (UniProt P49841); assay: Inhibition of 6-OHDA induced GSK3beta phosphorylation in human SH-SY5Y cells at 2.5 to 10 uM pretreated for 1 hr followed by 6-OHDA addition after 1 hr by Western blot analysis; assay type: cell-based
Chain of Glycogen synthase kinase-3 beta (Homo sapiens) (P49841 whole entry, looked up): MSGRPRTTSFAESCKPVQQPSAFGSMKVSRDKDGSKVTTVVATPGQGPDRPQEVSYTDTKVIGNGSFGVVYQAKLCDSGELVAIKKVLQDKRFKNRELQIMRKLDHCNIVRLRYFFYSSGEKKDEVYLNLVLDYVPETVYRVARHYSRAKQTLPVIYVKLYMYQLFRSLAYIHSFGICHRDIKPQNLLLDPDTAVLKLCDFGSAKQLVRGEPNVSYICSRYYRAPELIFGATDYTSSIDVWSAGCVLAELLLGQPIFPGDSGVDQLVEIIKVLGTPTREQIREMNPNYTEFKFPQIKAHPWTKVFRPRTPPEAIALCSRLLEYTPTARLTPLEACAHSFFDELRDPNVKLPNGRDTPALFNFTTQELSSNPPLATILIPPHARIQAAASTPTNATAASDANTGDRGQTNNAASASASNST

SH-SY5Y [7] = assay: Neuroprotective activity against 6-OHDA induced toxicity in human SH-SY5Y cells assessed as reduction in nuclear condensation at 2.5 to 10 uM pretreated for 1 hr followed by 6-OHDA addition after 24 hrs by Hoechst 33258/propidium iodide staining based fluorescence microscopic analysis; assay type: functional, cell-based
SH-SY5Y [8] = assay: Neuroprotective activity against 6-OHDA induced toxicity in human SH-SY5Y cells assessed as reduction in LDH release pretreated for 30 mins followed by 6-OHDA addition after 24 hrs by spectrophotometric method; assay type: functional, cell-based
SH-SY5Y [9] = assay: Neuroprotective activity against 6-OHDA induced apoptosis in human SH-SY5Y cells assessed as reduction in cleaved caspase-3 level at 2.5 to 10 uM pretreated for 1 hr followed by 6-OHDA addition after 6 to 24 hrs by Western blot analysis; assay type: functional, cell-based
[10] = target: RAC-alpha serine/threonine-protein kinase (Homo sapiens) (UniProt P31749); assay: Inhibition of 6-OHDA induced AKT phosphorylation in human SH-SY5Y cells at 2.5 to 10 uM pretreated for 1 hr followed by 6-OHDA addition after 1 hr by Western blot analysis; assay type: cell-based
Chain of RAC-alpha serine/threonine-protein kinase (Homo sapiens) (P31749 whole entry): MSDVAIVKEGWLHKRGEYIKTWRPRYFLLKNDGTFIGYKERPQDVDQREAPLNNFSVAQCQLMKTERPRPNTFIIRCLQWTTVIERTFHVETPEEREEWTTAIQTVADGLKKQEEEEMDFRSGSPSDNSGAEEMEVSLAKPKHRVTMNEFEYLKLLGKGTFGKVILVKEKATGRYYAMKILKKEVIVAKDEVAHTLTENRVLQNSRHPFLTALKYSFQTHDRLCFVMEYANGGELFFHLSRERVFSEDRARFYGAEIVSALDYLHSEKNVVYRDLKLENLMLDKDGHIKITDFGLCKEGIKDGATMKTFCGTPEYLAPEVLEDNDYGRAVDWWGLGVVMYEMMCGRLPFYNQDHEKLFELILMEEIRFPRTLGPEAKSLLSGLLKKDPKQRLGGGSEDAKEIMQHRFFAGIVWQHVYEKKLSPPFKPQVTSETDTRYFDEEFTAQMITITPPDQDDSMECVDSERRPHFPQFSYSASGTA

SH-SY5Y [11] = assay: Neuroprotective activity against 6-OHDA induced toxicity in human SH-SY5Y cells assessed as reduction in nuclear necrosis at 2.5 to 10 uM pretreated for 1 hr followed by 6-OHDA addition after 24 hrs by Hoechst 33258/propidium iodide staining based fluorescence microscopic analysis; assay type: functional, cell-based
SH-SY5Y [12] = assay: Neuroprotective activity against 6-OHDA induced toxicity in human SH-SY5Y cells assessed as reduction in cell viability pretreated for 30 mins followed by 6-OHDA addition after 24 hrs by MTT assay; assay type: functional, cell-based
SH-SY5Y [13] = assay: Neuroprotective activity against 6-OHDA induced apoptosis in human SH-SY5Y cells assessed as increase in Bcl-2 expression pretreated for 1 hr followed by 6-OHDA addition after 6 to 24 hrs by Western blot analysis; assay type: functional, cell-based
[14] = target: c-Jun N-terminal kinase, JNK (Homo sapiens) (UniProt P45983+P53779+P45984); assay: Inhibition of 6-OHDA induced JNK phosphorylation in human SH-SY5Y cells at 2.5 to 10 uM pretreated for 1 hr followed by 6-OHDA addition after 1 hr by Western blot analysis; assay type: cell-based
SH-SY5Y [15] = assay: Neuroprotective activity against 6-OHDA induced toxicity in human SH-SY5Y cells assessed as reduction in cell shrinkage at 2.5 to 10 uM pretreated for 1 hr followed by 6-OHDA addition after 24 hrs by Hoechst 33258/propidium iodide staining based fluorescence microscopic analysis; assay type: functional
SH-SY5Y [16] = assay: Neuroprotective activity against 6-OHDA induced toxicity in human SH-SY5Y cells assessed as reduction in intracellular ROS accumulation at 1 to 10 uM pretreated for 1 hr followed by 6-OHDA addition after 1 to 6 hrs by DCFH-DA dye based fluorescence spectrophotometric method; assay type: functional, cell-based
SH-SY5Y [17] = assay: Cytotoxicity against human SH-SY5Y cells assessed as reduction in LDH release at 0.5 to 10 uM after 24 hrs by spectrophotometric method; assay type: cell-based
SH-SY5Y [18] = assay: Neuroprotective activity against 6-OHDA induced apoptosis in human SH-SY5Y cells assessed as reduction in Bax expression pretreated for 1 hr followed by 6-OHDA addition after 6 to 24 hrs by Western blot analysis; assay type: functional, cell-based
SH-SY5Y [19] = assay: Neuroprotective activity against 6-OHDA induced apoptosis in human SH-SY5Y cells assessed as reduction in cleaved caspase-9 level at 2.5 to 10 uM pretreated for 1 hr followed by 6-OHDA addition after 6 to 24 hrs by Western blot analysis; assay type: functional, cell-based
[20] = target: MAP kinase p38 (Homo sapiens) (UniProt O15264+Q15759+Q16539+P53778); conditions: SH-SY5Y, 2.5 to 10 uM
Description: Inhibition of 6-OHDA induced p38 phosphorylation in human SH-SY5Y cells at 2.5 to 10 uM pretreated for 1 hr followed by 6-OHDA addition after 1 hr by Western blot analysis

SH-SY5Y [21] = assay: Cytotoxicity against human SH-SY5Y cells assessed as effect on cell viability at 0.5 to 10 uM after 24 hrs by MTT assay; assay type: cell-based

With `COc1ccc(-c2cc(=O)c3c(O)cc(O)cc3o2)cc1` [ACACETIN] the Activity (SH-SY5Y [1]) was “Active”, the inhibition [2] was “inactive” and the Activity (SH-SY5Y [3]) was “Dose-dependent effect”. The Activity (SH-SY5Y [4]) was “Active”, the Activity (SH-SY5Y [5]) was “Active” and the inhibition [6] was “Active”. The Activity (SH-SY5Y [7]) was “Active”, the Activity (SH-SY5Y [8]) was “Dose-dependent effect” and the Activity (SH-SY5Y [9]) was “Active”. The inhibition [10] was “Active”, the Activity (SH-SY5Y [11]) was “Active” and the Activity (SH-SY5Y [12]) was “Dose-dependent effect”. The Activity (SH-SY5Y [13]) was “Dose-dependent effect”, the inhibition [14] was “Active” and the Activity (SH-SY5Y [15]) was “Active”. The Activity (SH-SY5Y [16]) was “Active”, the Activity (SH-SY5Y [17]) was “Non-Toxic” and the Activity (SH-SY5Y [18]) was “Dose-dependent effect”. The Activity (SH-SY5Y [19]) was “Active”, the inhibition [20] was “Active” and the Activity (SH-SY5Y [21]) was “Non-Toxic”.
